Two molecules from patent publication US9999222B2, “Herbicidal combination comprising azines” (BASF SE, priority 2014, dated 2018) can be followed below.

Holding throughout (experiment): Greenhouse test, post-emergence treatment
One assay deals with AMARE. The format is in vivo, Amaranthus retroflexus. The conditions noted are these: scale 0 to 100. The text has this:
(§1) The culture containers used were plastic flowerpots containing loamy sand with approximately 3.0% of humus as the substrate. The seeds of the test plants were sown separately for each species.
(§2) For the post-emergence treatment, the test plants were first grown to a height of […], depending on the plant habit, and only then treated with the active ingredients which had been suspended or emulsified in water. For this purpose, the test plants were either sown directly and grown in the same containers, or they were first grown separately as seedlings and transplanted into the test containers a few days prior to treatment.
(§3) Depending on the species, the plants were kept at 10-25° C. or 20-35° C., respectively.
(§4) The test period extended over 2 to 4 weeks. During this time, the plants were tended, and their response to the individual treatments was evaluated.
(§5) Evaluation was carried out using a scale from 0 to 100. 100 means no emergence of the plants, or complete destruction of at least the aerial moieties, and 0 means no damage, or normal course of growth. A moderate herbicidal activity is given at values of at least 60, a good herbicidal activity is given at values of at least 70, and a very good herbicidal activity is given at values of at least 85.

The next assay has as its system POLCO. In kind it is in vivo, Polygonum convolvulus. The conditions noted are these: application rate 1.0 kg/ha, scale 0 to 100.
Excerpt: as §1, §2, §3, §4, §5

For the next assay, the system named is ABUTH. In kind it is in vivo, Abutilon theophrasti. The conditions noted are these: application rate 0.5 kg/ha, scale 0 to 100.
Excerpt: as §1, §2, §3, §4, §5

The test system of another assay is ECHCG. The format is in vivo, Echinocloa crus-galli. The conditions noted are these: application rate 0.5 kg/ha, scale 0 to 100.
Excerpt: as §1, §2, §3, §4, §5

Turning to `Nc1nc(CC2CC2)nc(Nc2c(F)cc(F)cc2F)n1` [Example 4, 6-(cyclopropylmethyl)-N4-(2,4,6-trifluorophenyl)-1,3,5-triazine-2,4-diamine], the herbicidal activity entry in the assay on AMARE (application rate 1.0 kg/ha) is recorded as “very good herbicidal activity (a very good herbicidal activity is given at values of at least 85)”; in the assay on POLCO, “good herbicidal activity (a good herbicidal activity is given at values of at least 70)”.

With `CC(c1nc(N)nc(Nc2c(F)c(F)cc(F)c2F)n1)C1CC1` (centres unmarked) [Example 5, 6-(1-cyclopropylethyl)-N4-(2,3,5,6-tetrafluorophenyl)-1,3,5-triazine-2,4-diamine], the herbicidal activity entry in the assay on ABUTH, in the assay with AMARE (application rate 0.5 kg/ha) and with ECHCG was “very good herbicidal activity (a very good herbicidal activity is given at values of at least 85)” throughout.
